This note sets out measurements from article PMC9131077, “Cytosolic Nudix Hydrolase 1 Is Involved in Geranyl β-Primeveroside Production in Tea” (Frontiers in Plant Science, 2022).

SMILES strings stand for the structures.

Assay in all cases: LC-MS/MS (MRM) of product GP
Holding throughout (format): biochemical

The target in one test is T1, CsNUDX1-cyto (Camellia sinensis, UniProt A0A4S4EYR7).
T1 construct: gene TEA_005538; full length, 156 residues; E. coli BL21 (DE3) Rosetta, pET15b, N-terminal His-tag, tested with and without tag

A further test has as its target T2, AtNUDX1 (Arabidopsis thaliana, UniProt Q9CA40).
T2 construct: gene NUDT1; E. coli BL21 (DE3) Rosetta, His-tag kept
The note with it: hydrolysed to GP; His-tagged positive control.

Another test deals with T3, CsNUDX1-chlo-Δ70 (Camellia sinensis, UniProt A0A4S4EZL9).
T3 construct: gene TEA_000488; N-terminal 70-residue transit peptide removed from the 220-residue protein; E. coli BL21 (DE3) Rosetta, pET15b, N-terminal His-tag
The following applies: hydrolysed to GP; transit peptide removed.

T1 sequence (A0A4S4EYR7 1-156): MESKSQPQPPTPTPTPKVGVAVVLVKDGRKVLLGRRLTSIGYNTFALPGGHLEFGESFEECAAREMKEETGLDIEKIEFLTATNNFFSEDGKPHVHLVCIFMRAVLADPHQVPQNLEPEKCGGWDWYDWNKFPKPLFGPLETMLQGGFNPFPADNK
T3 sequence (A0A4S4EZL9 entry or part of it, stated change not applied): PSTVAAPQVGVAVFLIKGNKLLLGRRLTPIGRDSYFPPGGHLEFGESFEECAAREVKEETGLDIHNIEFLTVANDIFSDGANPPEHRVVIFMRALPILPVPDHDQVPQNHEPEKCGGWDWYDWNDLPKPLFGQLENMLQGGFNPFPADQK
T2 sequence (Q9CA40 whole entry): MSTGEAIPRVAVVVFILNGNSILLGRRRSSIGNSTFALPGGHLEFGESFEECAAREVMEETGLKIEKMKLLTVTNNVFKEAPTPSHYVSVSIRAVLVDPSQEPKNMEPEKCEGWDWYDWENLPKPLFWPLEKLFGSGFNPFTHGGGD

Take `CC(C)=CCC/C(C)=C/COP(=O)(O)O` [geranyl monophosphate]: the “LC-MS/MS (MRM) of product GP” value on CsNUDX1-cyto (from GPP) is recorded as “GP was verified in vitro as the direct chemical product of CsNUDX1-cyto”.
For the compound `CC(C)=CCC/C(C)=C/COP(=O)(O)OP(=O)(O)O` [geranyl pyrophosphate], the “LC-MS/MS (MRM) of product GP” value on AtNUDX1 is given as “stronger GPP to GP hydrolysis activity than the Arabidopsis AtNUDX1”; on CsNUDX1-chlo-Δ70, “exhibited an increased activity compared to the full length CsNUDX1-chlo”; at CsNUDX1-cyto (hydrolysed to GP, with and without His-tag) it was “CsNUDX1-cyto possessed a stronger GPP to GP hydrolysis activity than the Arabidopsis AtNUDX1”.
